Reference: publication PMC9228152, “New Amino Naphthoquinone Derivatives as Anti-Trypanosoma cruzi Agents Targeting Trypanothione Reductase” (Pharmaceutics, 2022)
Like-named read-outs stand apart in the source and are kept apart here.

How the values were obtained:
[1] = test system: T. cruzi epimastigotes, NINOA strain; experiment: Growth inhibition of T. cruzi epimastigotes, NINOA strain; assay type: cell-based; settings: Trypanosoma cruzi, 120 h, read-out: Epi NINOA IC50
Procedure: (§1) Epimastigotes from T. cruzi strains NINOA and INC-5 were cultured in BHI (brain heart infusion broth, 89%) axenic medium, as reported in [26], at an initial concentration of 1 × 10^6 parasites/mL, at 28 °C, supplemented with 10% foetal bovine serum and 1% sodium penicillin-streptomycin. […] On the last day, the absorbance of the cultures was measured and related to the control. All measurements were carried out in triplicate. No toxic effect was attributable to DMSO. Since parasite growth is exponential, the data were analysed according to a first order equation, and the respective growth constant (k), corresponding to the slope, was calculated for controls and parasites treated with different drug concentrations. From these measurements, percentage growth inhibition (%GI) and half-maximal inhibitory concentration (IC50) values were calculated.

[2] = test system: T. cruzi epimastigotes, INC-5 strain; experiment: Growth inhibition of T. cruzi epimastigotes, INC-5 strain; assay type: cell-based, Trypanosoma cruzi; settings: Trypanosoma cruzi, 120 h, read-out: Epi INC-5 IC50
Procedure: as §1

[3] = test system: T. cruzi trypomastigotes, INC-5 strain; experiment: microbe, parasite or virus in culture; assay type: cell-based; settings: Trypanosoma cruzi, read-out: Trypo INC-5 LC50 (half-maximal lytic concentration)
Procedure: (§2) Those compounds with the lowest IC50 values in the epimastigote studies of each strain were evaluated in trypomastigotes. For this purpose, bloodstream trypomastigotes of INC-5 and NINOA strains were used for peritoneal injection into 6−8-week-old CD1 mice. The peak of parasitemia was achieved after 4–6 weeks, at which time parasitised blood samples were obtained by cardiac puncture using sodium heparin as an anticoagulant and diluted to a concentration of 1 × 10^6 trypomastigotes/mL. 10 µL of each of the dilutions of the study compounds and Bzn, with these being placed in a 96-well plate, and 90 µL of infected blood was added, providing a final volume of 100 µL per well. The microplates were incubated at 4 °C for 24 h, and concentrations of 20 µM, 10 µM, and 5 µM of each compound were considered in these experiments. Each evaluation was performed in triplicate. Wells with untreated blood trypomastigotes were used as a negative lysis control and Bzn as a positive control. Then, the degree of lysis of trypomastigotes was determined by their reduction in number using an optical microscope according to the Brener–Pizzi method. For this purpose, 5 μL of blood was placed between a slide and a 13 × 13 coverslip. Mobile trypomastigotes were counted in 15 microscope fields at 40× magnification. Quantification of the degree of lysis for each case was expressed as a percentage considering the number of viable trypomastigotes with respect to the negative control. The half-maximal lytic concentration (LC50) was determined by linear regression. The experiments were carried out in accordance with the recommendations and approval of the local Ethics and Research Committee (Approval number: ENCB/CEI/078/2020).

[4] = test system: T. cruzi trypomastigotes, NINOA strain; experiment: microbe, parasite or virus in culture; assay type: cell-based; settings: Trypanosoma cruzi, read-out: Trypo NINOA LC50 (half-maximal lytic concentration)
Procedure: as §2

J774 murine macrophages = experiment: Cytotoxicity on J774 macrophages (MTT); assay type: cell-based
Procedure: Cytotoxicity assays for the compounds selected for their trypanocidal activity were performed on J774 macrophage cells using the MTT method. For this purpose, 50,000 cells/well resuspended in RPMI medium and 2% foetal bovine serum were seeded in a 96-well plate and incubated for 24 h at 37 °C. […] After 24 h of incubation, the existing culture medium was replaced in the plate with fresh culture medium along with […] each of the compound dilutions (100 to 1.25 μM) and Bzn to a final volume of 100 µL per well. This plate was then incubated in 5% CO2 for 24 h at 37 °C. The controls used were cells with medium as a positive control and cells without culture medium as a negative control. After the 24 h incubation, the morphology of the macrophages was observed under a microscope and then the culture medium was removed again and the MTT solution (5 mg/mL) was added. After 1 h incubation at 37 °C, the absorbance at 570 nm was recorded on an Elisa Epoch reader. The following formula was used to calculate the % cytotoxicity: %cytotoxicity = (100 − (mean number of cells with treatment/cells without treatment) × 100).

[5] = epimastigotes, NINOA strain, five days, means of three independent experiments
[6] = epimastigotes, INC-5 strain, five days, means of three independent experiments
[7] = bloodstream trypomastigotes, INC-5 strain, 24 h at 4 °C
[8] = bloodstream trypomastigotes, NINOA strain, 24 h at 4 °C
[9] = Mus musculus, J774, 24 h, J774 macrophages, MTT, 24 h, read-out: J774 IC50

SMILES | IC50 [1, 5] | IC50 [2, 6] | LC50 [3, 7] | LC50 [4, 8] | further results
O=C1C(Br)=C(N2CCC(N3CCOCC3)CC2)C(=O)c2ccccc21 [Compound 2i, 2-Bromo-3-(4-morpholinopiperidin-1-yl)naphthalene-1,4-dione] | 10.1 ± 0.05 µM | 1.74 ± 0.02 µM | – | – | melting point: 148 to 149 °C
O=C1C(Cl)=C(N2CCC(N3CCOCC3)CC2)C(=O)c2ccccc21 [Compound 2h, 2-Chloro-3-(4-morpholinopiperidin-1-yl)naphthalene-1,4-dione] | 6.4 ± 0.02 µM | 6.6 ± 0.08 µM | – | – | melting point: 145 to 146 °C
COc1ccc(C(=O)NC2CCN(C3=C(Cl)C(=O)c4ccccc4C3=O)CC2)cc1F [Compound 7h, N-(1-(3-chloro-1,4-dioxo-1,4-dihydronaphthalen-2-yl)piperidin-4-yl)-3-fluoro-4-methoxybenzamide] | 0.84 ± 0.11 µM | 1.35 ± 0.01 µM | 94.7 ± 5.21 µM | 78.6 ± 3.91 µM | IC50 (J774 murine macrophages; J774 macrophages, MTT, 24 h, read-out: J774 IC50): 22 µM; IC50 (J774 murine macrophages; [9]): ~25 µM
O=C1C=C(N2CCN(C3CCCC3)CC2)C(=O)c2ccccc21 [Compound 2d, 2-(4-Cyclopentylpiperazin-1-yl)naphthalene-1,4-dione] | 1.12 ± 0.04 µM | 5.04 ± 0.26 µM | 87.3 ± 5.32 µM | > 100 µM | –
O=C1C(Br)=C(N2CCN(C3CCCC3)CC2)C(=O)c2ccccc21 [Compound 2f, 2-Bromo-3-(4-cyclopentylpiperazin-1-yl)naphthalene-1,4-dione] | 1.15 ± 0.09 µM | 1.46 ± 0.03 µM | > 100 µM | 97.9 ± 2.13 µM | –
O=C1C=C(N2CCC(N3CCOCC3)CC2)C(=O)c2ccccc21 [Compound 2g, 2-(4-Morpholinopiperidin-1-yl)naphthalene-1,4-dione] | 7.05 ± 0.95 µM | 8.45 ± 0.35 µM | – | – | melting point: 151 to 153 °C
O=C(NC1CCN(C2=C(Cl)C(=O)c3ccccc3C2=O)CC1)c1cc([N+](=O)[O-])cc([N+](=O)[O-])c1 [Compound 7f, N-(1-(3-chloro-1,4-dioxo-1,4-dihydronaphthalen-2-yl)piperidin-4-yl)-3,5-dinitrobenzamide] | – | – | – | – | IC50 [1]: 0.99 ± 0.01 µM; IC50 [2]: 1.84 ± 0.06 µM; LC50 ([3]; 24 h): 98.6 ± 8.2 µM; LC50 ([4]; 24 h): 70.9 ± 7.31 µM; IC50 (J774 murine macrophages; Mus musculus, J774, 24 h, read-out: J774 IC50, J774 macrophages, MTT, 24 h): ~25 µM
O=C1C=C(NCCN2CCOCC2)C(=O)c2ccccc21 [Compound 2a, 2-((2-Morpholinoethyl)amino)naphthalene-1,4-dione] | 1.1 ± 0.12 µM | 3.06 ± 0.01 µM | > 100 µM | > 100 µM | –

Further lines, with some results ahead:

IC50 [1, 5] | IC50 [2, 6] | SMILES | LC50 [3, 7] | LC50 [4, 8] | further results
6.41 ± 0.02 µM | 2.46 ± 0.08 µM | O=C(NC1CCN(C2=C(Cl)C(=O)c3ccccc3C2=O)CC1)c1ccccc1Br [Compound 7a, 2-Bromo-N-(1-(3-chloro-1,4-dioxo-1,4-dihydronaphthalen-2-yl)piperidin-4-yl)benzamide] | – | – | melting point: 197 to 198 °C
1.25 ± 0.06 µM | 2.3 ± 0.11 µM | O=C(NC1CCN(C2=C(Cl)C(=O)c3ccccc3C2=O)CC1)c1ccc(CCl)cc1 [Compound 7d, N-(1-(3-chloro-1,4-dioxo-1,4-dihydronaphthalen-2-yl)piperidin-4-yl)-4-(chloromethyl)benzamide] | > 100 µM | > 100 µM | –
1.1 ± 0.05 µM | 2.98 ± 0.2 µM | O=C1C(Cl)=C(NCCN2CCOCC2)C(=O)c2ccccc21 [Compound 2b, 2-Chloro-3-((2-morpholinoethyl)amino)naphthalene-1,4-dione] | > 100 µM | > 100 µM | –
0.43 ± 0.15 µM | – | O=C1C(Cl)=C(N2CCN(C3CCCC3)CC2)C(=O)c2ccccc21 [Compound 2e, 2-Chloro-3-(4-cyclopentylpiperazin-1-yl)naphthalene-1,4-dione] | > 100 µM | > 100 µM | –
3.55 ± 0.02 µM | 2.57 ± 0.04 µM | O=C(NC1CCN(C2=C(Cl)C(=O)c3ccccc3C2=O)CC1)c1cc(F)cc(Cl)c1 [Compound 7g, 3-Chloro-N-(1-(3-chloro-1,4-dioxo-1,4-dihydronaphthalen-2-yl)piperidin-4-yl)-5-fluorobenzamide] | > 100 µM | > 100 µM | –
4.45 ± 0.06 µM | 5.6 ± 0.03 µM | Cc1cc(C)cc(C(=O)NC2CCN(C3=C(Cl)C(=O)c4ccccc4C3=O)CC2)c1 [Compound 7e, N-(1-(3-chloro-1,4-dioxo-1,4-dihydronaphthalen-2-yl)piperidin-4-yl)-3,5-dimethylbenzamide] | – | – | melting point: 206 to 208 °C
0.77 ± 0.21 µM | 2.23 ± 0.06 µM | O=C(NC1CCN(C2=C(Cl)C(=O)c3ccccc3C2=O)CC1)c1ccc([N+](=O)[O-])cc1 [Compound 7b, N-(1-(3-chloro-1,4-dioxo-1,4-dihydronaphthalen-2-yl)piperidin-4-yl)-4-nitrobenzamide] | > 100 µM | 80.3 ± 4.03 µM | –
1.09 ± 0.01 µM | 3.35 ± 0.05 µM | O=C1C(Cl)=C(N2CCC(NC(=O)c3ccc(C(F)(F)F)cc3[N+](=O)[O-])CC2)C(=O)c2ccccc21 [Compound 7i, N-(1-(3-chloro-1,4-dioxo-1,4-dihydronaphthalen-2-yl)piperidin-4-yl)-2-nitro-4-(trifluoromethyl)benzamide] | > 100 µM | 90.5 ± 6.58 µM | –
0.52 ± 0.04 µM | 1.14 ± 0.07 µM | O=C(NC1CCN(C2=C(Cl)C(=O)c3ccccc3C2=O)CC1)c1cccc(Cl)c1 [Compound 7c, 3-Chloro-N-(1-(3-chloro-1,4-dioxo-1,4-dihydronaphthalen-2-yl)piperidin-4-yl)benzamide] | > 100 µM | 68.4 ± 6.3 µM | IC50 (J774 murine macrophages; [9]): ~25 µM
1.14 ± 0.06 µM | 2.22 ± 0.04 µM | O=C1C(Br)=C(NCCN2CCOCC2)C(=O)c2ccccc21 [Compound 2c, 2-Bromo-3-((2-morpholinoethyl)amino)naphthalene-1,4-dione] | > 100 µM | > 100 µM | –
